According to US20100273780A1, “SUBSTITUTED 8-HETEROARYL XANTHINES” (PGXHEALTH, LLC, priority 2003, published 2010):

Target: T1, rat A2B receptors (rA2B) (Rattus norvegicus, UniProt P29276)
T1 construct: expressed in transfected cells; host or cells: HEK-293 cells, stably transfected (G418 selection); membranes
T1 sequence (P29276 1-332): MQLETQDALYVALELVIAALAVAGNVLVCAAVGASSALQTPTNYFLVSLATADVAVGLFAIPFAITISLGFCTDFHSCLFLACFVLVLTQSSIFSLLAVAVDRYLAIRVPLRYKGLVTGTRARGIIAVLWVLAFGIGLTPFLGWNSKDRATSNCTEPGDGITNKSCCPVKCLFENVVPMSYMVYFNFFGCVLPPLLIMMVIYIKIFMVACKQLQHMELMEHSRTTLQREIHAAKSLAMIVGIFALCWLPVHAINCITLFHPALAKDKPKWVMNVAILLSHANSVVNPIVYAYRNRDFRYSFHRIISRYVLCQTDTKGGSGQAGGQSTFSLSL
Assay: Radioligand competition binding (125I-ABOPX) at rat A2B receptors in HEK-293 membranes
Settings: displacement of specific [125I]ABOPX binding at rat A2B receptors expressed in HEK-293 cells; read-out: RatA2B Ki
Description: The plasmid was amplified in competent JM109 cells and plasmid DNA isolated using Wizard Megaprep columns (Promega Corporation, Madison, Wis.).
Transfected HEK cells were grown under 5% CO2/[…] humidified atmosphere at a temperature of 37° C. Colonies were selected by growth of cells in 0.6 mg/mL G418. Transfected cells were maintained in DMEM supplemented with Hams F12 nutrient mixture (1/1), 10% newborn calf serum, 2 mM glutamine and containing 50 IU/mL penicillin, […], and 0.2 mg/mL Geneticin (G418, Boehringer Mannheim). Cells were cultured in 10 cm diameter round plates and subcultured when grown confluent (approximately after 72 hours).
At A2B receptors: Confluent monolayers of HEK-A2B cells were washed with PBS followed by ice cold Buffer A (10 mM HEPES, 10 mM EDTA, pH 7.4) with protease inhibitors (10 μg/mL benzamidine, 100 μM phenylmethanesulfonyl fluoride, and 2 μg/mL of each aprotinin, pepstatin and leupeptin). The cells were homogenized in a Polytron (Brinkmann) for 20 s, centrifuged at 30,000×g, and the pellets washed twice with buffer HE (10 mM HEPES, 1 mM EDTA, pH 7.4 with protease inhibitors). The final pellet was resuspended in buffer HE, supplemented with 10% sucrose and frozen in aliquots at −80° C. For binding assays membranes were thawed and diluted 5-10 fold with HE to a final protein concentration of approximately 1 mg/mL. To determine protein concentrations, membranes, and bovine serum albumin standards were dissolved in 0.2% NaOH/0.01% SDS and protein determined using fluorescamine fluorescence. Stowell, C.
After incubation, 20 minutes at room temperature, 50 μL, of 10 mg/mL Na-metabisulfite in water was added to quench the reaction. The reaction mixture was applied to a C18 HPLC column, eluting with a mixture of methanol and 5 mM phosphate, pH 6.0. After 5 min at 35% methanol, the methanol concentration was ramped to 100% over 15 min.
Radioligand binding experiments were performed in triplicate with 20-25 μg membrane protein in a total volume of 0.1 mL HE buffer supplemented with 1 U/mL adenosine deaminase and 5 mM MgCl2. The incubation time was 3 h at 21° C. Nonspecific binding was measured in the presence of 100 μM NECA. […] Membranes were filtered on Whatman GF/C filters using a Brandel cell harvester (Gaithersburg, Md.) and washed 3 times over 15-20 seconds with ice cold buffer (10 mM Tris, 1 mM MgCl2, pH 7.4). Bmax and KD values were calculated by Marquardt's nonlinear least squares interpolation for single a site binding models. Marquardt, D. M., J. Soc. Indust. Appl. […] Ki values for different compounds were derived from IC50 values as described. Linden, J., J. Cycl. Nucl. […] Data from replicate experiments are tabulated as means±SEM.

Row | Compound | Ki
1 | 1,3-Diethyl-8-[6-[N-nicotinoylethylamino]-3-pyridyl)xanthine [Compound 62] | < 0.5 µM
2 | 1,3-Dipropyl-8-[6-[N-(isoxazole-5-carbonyl)methylamino]-3-pyridyl)xanthine [Compound 110] | < 0.5 µM
3 | 1-Cyclopropyl-3-propyl-8-[6-[N-nicotinoylmethylamino]-3-pyridyl)xanthine [Compound 129] | < 0.1 µM
4 | CCCn1c(=O)c2[nH]c(-c3ccc(NC(C)CO)nc3)nc2n(CCC)c1=O (stereo not drawn) [Compound 15, 1,3-Dipropyl-8-[6-(1-hydroxy-2-propyl)amino-3-pyridyl]xanthine] | < 0.1 µM
5 | CCCn1c(=O)c2[nH]c(-c3ccc(N4CCOCC4)nc3)nc2n(CCC)c1=O [Compound 16, 1,3-Dipropyl-8-(6-morpholino-3-pyridyl)xanthine] | < 0.1 µM
6 | 1,3-Diethyl-8-[6-[(N-phenylcarbamoyl)methylamino]-3-pyridyl)xanthine [Compound 61] | < 5 µM
7 | 1,3-Dipropyl-8-[6-[N-(2-pyrazinecarbonyl)methylamino]-3-pyridyl)xanthine [Compound 109] | < 0.5 µM
8 | 1,3-Diethyl-8-[6-(N-(6-chloronicotinoyl)methylamino)-3-pyridyl]xanthine [Compound 130] | < 0.1 µM
9 | 1,3-Dipropyl-8-[6-[N-isonicotinoylmethylamino]-3-pyridyl)xanthine [Compound 49] | < 0.1 µM
10 | CCCn1c(=O)c2[nH]c(-c3ccc(NCC)nc3)nc2n(CCC)c1=O [Compound 3, 1,3-Dipropyl-8-(6-ethylamino-3-pyridyl)xanthine] | < 0.5 µM
11 | 1,3-Diethyl-8-[6-[N-(isoxazole-5-carbonyl)methylamino]-3-pyridyl)xanthine [Compound 108] | < 0.5 µM
12 | CCCn1c(=O)c2[nH]c(-c3ccc(NC)nc3)nc2n(CCC)c1=O [Compound 10, 1,3-Dipropyl-8-(6-methylamino-3-pyridyl)xanthine] | < 0.5 µM
13 | 1-Cyclopropylmethyl-3-ethyl-8-[6-[N-(6-chloronicotinoyl)methylamino]-3-pyridyl)xanthine [Compound 145] | < 0.1 µM
14 | CCCn1c(=O)c2[nH]c(-c3ccc(NCCO)nc3)nc2n(CCC)c1=O [Compound 4, 1,3-Dipropyl-8-(6-(2-hydroxyethyl)amino-3-pyridyl)xanthine] | < 0.5 µM
15 | CCCn1c(=O)c2[nH]c(-c3ccc(NCC(C)O)nc3)nc2n(CCC)c1=O (stereo not drawn) [Compound 13, 1,3-Dipropyl-8-[6-(2-hydroxypropyl)amino-3-pyridyl]xanthine] | < 0.5 µM
16 | CCCn1c(=O)c2[nH]c(-c3ccc(N4CCCC4)nc3)nc2n(CCC)c1=O [Compound 8, 1,3-Dipropyl-8-(6-pyrrolidinylpyrid-3-yl)xanthine] | < 0.5 µM
17 | 1,3-diallyl-8-[6-(N-(6-chloronicotinoyl)methylamino)-3-pyridyl]xanthine [Compound 120] | < 0.1 µM

Now from value to compound:

Row | Ki | Compound
18 | < 0.1 µM | CCn1c(=O)c2[nH]c(-c3ccc(NCCN4CCCC4)nc3)nc2n(CC)c1=O [Compound 81, 1,3-Diethyl-8-[6-[2-(1-pyrrolidinyl)-ethylamino]-3-pyridyl]xanthine]
19 | < 0.1 µM | CCCn1c(=O)c2[nH]c(-c3ccc(N(C)C(=O)c4cc(C)on4)nc3)nc2n(CCC)c1=O [Compound 111, 1,3-Dipropyl-8-[6-[N-(5-methylisoxazol-3-yl-3-carbonyl)methylamino]-3-pyridyl)xanthine]
20 | < 0.5 µM | CCCn1c(=O)c2[nH]c(-c3ccc(NCCOCCO)nc3)nc2n(CCC)c1=O [Compound 18, 1,3-Dipropyl-8-[[6-(2-hydroxyethoxy)ethylamino]-3-pyridy]xanthine]
21 | < 0.5 µM | CCn1c(=O)c2[nH]c(-c3ccc(N(CCOC)C(=O)Nc4ccncc4)nc3)nc2n(CC)c1=O [Compound 95]
22 | < 0.1 µM | CCCn1c(=O)c2[nH]c(-c3ccc(N(C)C(=O)c4ccc(C(F)(F)F)nc4)nc3)nc2n(CCC)c1=O [Compound 121, 1,3-dipropyll-8-[6-(N-[6-(trifluoromethyl)nicotinoyl]methylamino)-3-pyridyl]xanthine]
23 | < 0.5 µM | CCCn1c(=O)c2[nH]c(-c3ccc(NCCNC(C)=O)nc3)nc2n(CCC)c1=O [Compound 83, 1,3-Dipropyl-8-(6-(2-acetylaminoethyl)amino-3-pyridyl)xanthine]
24 | < 0.1 µM | CCn1c(=O)c2[nH]c(-c3ccc(NCc4ccccn4)nc3)nc2n(CC)c1=O [Compound 73, 1,3-Diethyl-8-[6-(2-pyridylmethylamino)-3-pyridyl]xanthine]
25 | < 0.5 µM | CN(C(=O)c1cccnc1)c1ccc(-c2nc3c([nH]2)c(=O)n(CC2CC2)c(=O)n3CC2CC2)cn1 [Compound 69, 1,3-Dicylopropylmethyl-8-[6-[N-nicotinoylmethylamino]-3-pyridyl)xanthine]
26 | < 0.5 µM | CNc1ccc(-c2nc3c([nH]2)c(=O)n(C)c(=O)n3C)cn1 [Compound 97, 1,3-Dimethyl-8-(6-methylamino-3-pyridyl)xanthine]
27 | < 5 µM | C#CCn1c(=O)c2[nH]c(-c3ccc(N(CCOC)C(=O)c4cccnc4)nc3)nc2n(C)c1=O [Compound 100, 1-Propargyl, 3-methyl-8-[6-[N-nicotinoyl, N-(2-methoxyethyl)amino]-3-pyridyl)xanthine]
28 | < 0.5 µM | CCCn1c(=O)c2[nH]c(-c3ccc(NC4CC4)nc3)nc2n(CCC)c1=O [Compound 23, 1,3-Dipropyl-8-(6-cyclopropylamino-3-pyridyl]xanthine]
29 | < 0.5 µM | CCCn1c(=O)c2[nH]c(-c3ccc(N4CCNCC4)nc3)nc2n(CCC)c1=O [Compound 19, 1,3-Dipropyl-8-(6-piperazino-3-pyridyl)xanthine]
30 | < 0.1 µM | CCCn1c(=O)c2[nH]c(-c3ccc(NCCc4ccccn4)nc3)nc2n(CCC)c1=O [Compound 78, 1,3-Dipropyl-8-[6-[2-(2-pyridyl)-ethylamino]-3-pyridyl]xanthine]
31 | < 0.5 µM | CCCn1c(=O)c2[nH]c(-c3ccc(NCc4ccc(CN)cc4)nc3)nc2n(CCC)c1=O [Compound 21, 1,3-Dipropyl-8-[6-(4-aminomethylbenzylamino)-3-pyridyl]xanthine]
32 | < 0.1 µM | CCn1c(=O)c2[nH]c(-c3ccc(NCc4cccc(OC)c4)nc3)nc2n(CC)c1=O [Compound 75, 1,3-Diethyl-8-[6-(3-methoxybenzylamino)-3-pyridyl]xanthine]
33 | < 0.5 µM | CCN(C(=O)c1cccnc1)c1ccc(-c2nc3c([nH]2)c(=O)n(CC2CC2)c(=O)n3CC2CC2)cn1 [Compound 70, 1,3-Dicylopropylmethyl-8-[6-[N-nicotinoylethylamino]-3-pyridyl)xanthine]
34 | < 5 µM | CCCn1c(=O)c2[nH]c(-c3ccc(Cl)nc3)nc2n(CCc2ccc(OC)cc2)c1=O [Compound 54, 1-propyl-3-(4-methoxyphenyl)ethyl-8-(6-chloro-3-pyridyl)xanthine]
35 | < 0.1 µM | CCn1c(=O)c2[nH]c(-c3ccc(NCc4cccnc4)nc3)nc2n(CC)c1=O [Compound 74, 1,3-Diethyl-8-[6-(3-pyridylmethylamino)-3-pyridyl]xanthine]
36 | < 0.1 µM | CCCn1c(=O)c2[nH]c(-c3ccc(N4CCCNCC4)nc3)nc2n(CCC)c1=O [Compound 58, 1,3-Dipropyl-8-[6-(hexahydro-1,4-diazaepin-1-yl)-3-pyridyl]xanthine]
